From publication PMC12736120, “First-in-Human Phase I Clinical Trial of SLC-391, a Novel and Selective AXL Inhibitor, in Patients with Advanced Solid Tumours” (Pharmaceuticals, 2025)

Test: Phase I safety and tolerability (DLTs, adverse events, laboratory, ECG)
Assay type: in vivo
Description: This study employed a standard 3 + 3 dose escalation design with a starting dose of 25 mg QD. […] Dose escalation decisions took into account all available data from evaluable subjects as well as PK and the safety profile of prior dose cohorts. […] There was a minimum 5-day stagger between dosing of the first and second subjects in each dose cohort. Dose escalation decisions were made by a data review committee (DRC) composed of, at minimum, the medical monitor, at least one principal investigator, and a sponsor representative, per the study DRC Plan. Dose escalation could continue until 2 or more subjects in the same dose cohort experienced a dose-limiting toxicity (DLT). DLTs were defined as Grade 3 or 4 adverse drug reactions (ADRs), with grades as defined in the National Cancer Institute Common Toxicity Criteria for Adverse Events (NCI-CTCAE) version 5.0. […] The MTD was defined as the highest dose at which no more than 1 of 6 subjects experienced a DLT during cycle 1 of the study drug. The MTD would have been exceeded if 2 or more subjects in a dose cohort of up to 6 subjects experienced a DLT. Subjects could continue treatment until disease progression, unacceptable toxicity, death, withdrawal of consent, or loss to follow-up.
Before enrolment in the study, all patients received a detailed medical history and physical examination. Clinical laboratory evaluations included clinical chemistry, complete blood count, urinalysis, coagulation factors, and a lipid panel. Other safety assessments included vital signs, physical examination, electrocardiogram, and echocardiogram with multigated acquisition (ECHO/MUGA). Safety assessments were performed on days 1, 8, 15, and 21 of cycle 1, and on day 1 of cycles 2 to 6.

[1] = Grade 1, Overall Study (N = 35)
[2] = Grade 2, Overall Study (N = 35)

Nc1ncc(-c2cnn(C3CCNCC3)c2)cc1-c1nnc(CC2CC2)o1 [SLC-391, 3-(5-[cyclopropylmethyl]-1,3,4-oxadiazol-2-yl)-5-(1-[piperidin-4-yl]-1H-pyrazol-4-yl)-pyridin-2-amine]
TEAE: Abdominal distension [1]: 4 (11.4) n (%) | TEAE: Abdominal pain [1]: 4 (11.4) n (%) | TEAE: Back pain [1]: 1 (2.9) n (%) | TEAE: Blood and lymphatic system disorders [1]: 1 (2.9) n (%) | TEAE: Chills [1]: 6 (17.1) n (%) | TEAE: Constipation [1]: 10 (28.6) n (%) | TEAE: Cough [1]: 6 (17.1) n (%) | TEAE: Decreased appetite [1]: 7 (20.0) n (%) | TEAE: Diarrhoea [1]: 14 (40.0) n (%) | TEAE: Dizziness [1]: 4 (11.4) n (%) | TEAE: Dysgeusia [1]: 1 (2.9) n (%) | TEAE: Dyspnoea [1]: 2 (5.7) n (%) | TEAE: Fatigue [1]: 10 (28.6) n (%) | TEAE: Gastrointestinal disorders [1]: 15 (42.9) n (%) | TEAE: General disorders and administration site conditions [1]: 12 (34.3) n (%) | TEAE: Haematuria [1]: 4 (11.4) n (%) | TEAE: Headache [1]: 5 (14.3) n (%) | TEAE: Infections and infestations [1]: 1 (2.9) n (%) | TEAE: Investigations [1]: 7 (20.0) n (%) | TEAE: Metabolism and nutrition disorders [1]: 5 (14.3) n (%) | TEAE: Musculoskeletal and connective tissue disorders [1]: 7 (20.0) n (%) | TEAE: Nausea [1]: 15 (42.9) n (%) | TEAE: Nervous system disorders [1]: 11 (31.4) n (%) | TEAE: Oedema peripheral [1]: 3 (8.6) n (%) | TEAE: Psychiatric disorders [1]: 3 (8.6) n (%) | TEAE: Pyrexia [1]: 4 (11.4) n (%) | TEAE: Renal and urinary disorders [1]: 3 (8.6) n (%) | TEAE: Respiratory, thoracic, and mediastinal disorders [1]: 5 (14.3) n (%) | TEAE: Skin and subcutaneous tissue disorders [1]: 6 (17.1) n (%) | TEAE: Vomiting [1]: 13 (37.1) n (%) | TEAE: Weight decreased [1]: 6 (17.1) n (%) | Any treatment-emergent adverse event (TEAE) (Grade 2, Overall BID (N = 15)): 7 (46.7) n (%) | TEAE: Abdominal distension (Grade 2, Overall BID (N = 15)): 1 (6.7) n (%) | TEAE: Abdominal pain (Grade 2, Overall BID (N = 15)): 0 n (%) | TEAE: Back pain (Grade 2, Overall BID (N = 15)): 2 (13.3) n (%) | TEAE: Blood and lymphatic system disorders (Grade 2, Overall BID (N = 15)): 0 n (%) | TEAE: Constipation (Grade 2, Overall BID (N = 15)): 2 (13.3) n (%) | TEAE: Cough (Grade 2, Overall BID (N = 15)): 1 (6.7) n (%) | TEAE: Decreased appetite (Grade 2, Overall BID (N = 15)): 4 (26.7) n (%) | TEAE: Diarrhoea (Grade 2, Overall BID (N = 15)): 2 (13.3) n (%) | TEAE: Dysgeusia (Grade 2, Overall BID (N = 15)): 2 (13.3) n (%) | TEAE: Dyspnoea (Grade 2, Overall BID (N = 15)): 5 (33.3) n (%) | TEAE: Fatigue (Grade 2, Overall BID (N = 15)): 5 (33.3) n (%) | TEAE: Gastrointestinal disorders (Grade 2, Overall BID (N = 15)): 5 (33.3) n (%) | TEAE: General disorders and administration site conditions (Grade 2, Overall BID (N = 15)): 6 (40.0) n (%) | TEAE: Haematuria (Grade 2, Overall BID (N = 15)): 1 (6.7) n (%) | TEAE: Infections and infestations (Grade 2, Overall BID (N = 15)): 5 (33.3) n (%) | TEAE: Investigations (Grade 2, Overall BID (N = 15)): 1 (6.7) n (%) | TEAE: Metabolism and nutrition disorders (Grade 2, Overall BID (N = 15)): 5 (33.3) n (%) | TEAE: Musculoskeletal and connective tissue disorders (Grade 2, Overall BID (N = 15)): 3 (20.0) n (%) | TEAE: Nausea (Grade 2, Overall BID (N = 15)): 4 (26.7) n (%) | TEAE: Nervous system disorders (Grade 2, Overall BID (N = 15)): 2 (13.3) n (%) | TEAE: Oedema peripheral (Grade 2, Overall BID (N = 15)): 1 (6.7) n (%) | TEAE: Psychiatric disorders (Grade 2, Overall BID (N = 15)): 2 (13.3) n (%) | TEAE: Pyrexia (Grade 2, Overall BID (N = 15)): 0 n (%) | TEAE: Renal and urinary disorders (Grade 2, Overall BID (N = 15)): 1 (6.7) n (%) | TEAE: Respiratory, thoracic, and mediastinal disorders (Grade 2, Overall BID (N = 15)): 6 (40.0) n (%) | TEAE: Skin and subcutaneous tissue disorders (Grade 2, Overall BID (N = 15)): 0 n (%) | TEAE: Urinary tract infection (Grade 2, Overall BID (N = 15)): 3 (20.0) n (%) | TEAE: Vascular disorders (Grade 2, Overall BID (N = 15)): 1 (6.7) n (%) | TEAE: Vomiting (Grade 2, Overall BID (N = 15)): 1 (6.7) n (%) | Any treatment-emergent adverse event (TEAE) (Grade 2, Overall QD (N = 20)): 12 (60.0) n (%) | TEAE: Abdominal distension (Grade 2, Overall QD (N = 20)): 1 (5.0) n (%) | TEAE: Abdominal pain (Grade 2, Overall QD (N = 20)): 1 (5.0) n (%) | TEAE: Back pain (Grade 2, Overall QD (N = 20)): 1 (5.0) n (%) | TEAE: Blood and lymphatic system disorders (Grade 2, Overall QD (N = 20)): 1 (5.0) n (%) | TEAE: Constipation (Grade 2, Overall QD (N = 20)): 2 (10.0) n (%) | TEAE: Cough (Grade 2, Overall QD (N = 20)): 0 n (%) | TEAE: Decreased appetite (Grade 2, Overall QD (N = 20)): 1 (5.0) n (%) | TEAE: Diarrhoea (Grade 2, Overall QD (N = 20)): 3 (15.0) n (%) | TEAE: Dysgeusia (Grade 2, Overall QD (N = 20)): 1 (5.0) n (%) | TEAE: Dyspnoea (Grade 2, Overall QD (N = 20)): 4 (20.0) n (%) | TEAE: Fatigue (Grade 2, Overall QD (N = 20)): 6 (30.0) n (%) | TEAE: Gastrointestinal disorders (Grade 2, Overall QD (N = 20)): 6 (30.0) n (%) | TEAE: General disorders and administration site conditions (Grade 2, Overall QD (N = 20)): 8 (40.0) n (%) | TEAE: Haematuria (Grade 2, Overall QD (N = 20)): 0 n (%) | TEAE: Infections and infestations (Grade 2, Overall QD (N = 20)): 3 (15.0) n (%) | TEAE: Investigations (Grade 2, Overall QD (N = 20)): 0 n (%) | TEAE: Metabolism and nutrition disorders (Grade 2, Overall QD (N = 20)): 2 (10.0) n (%) | TEAE: Musculoskeletal and connective tissue disorders (Grade 2, Overall QD (N = 20)): 2 (10.0) n (%) | TEAE: Nausea (Grade 2, Overall QD (N = 20)): 4 (20.0) n (%) | TEAE: Nervous system disorders (Grade 2, Overall QD (N = 20)): 2 (10.0) n (%) | TEAE: Oedema peripheral (Grade 2, Overall QD (N = 20)): 0 n (%) | TEAE: Psychiatric disorders (Grade 2, Overall QD (N = 20)): 0 n (%) | TEAE: Pyrexia (Grade 2, Overall QD (N = 20)): 1 (5.0) n (%) | TEAE: Renal and urinary disorders (Grade 2, Overall QD (N = 20)): 1 (5.0) n (%) | TEAE: Respiratory, thoracic, and mediastinal disorders (Grade 2, Overall QD (N = 20)): 6 (30.0) n (%) | TEAE: Skin and subcutaneous tissue disorders (Grade 2, Overall QD (N = 20)): 3 (15.0) n (%) | TEAE: Urinary tract infection (Grade 2, Overall QD (N = 20)): 1 (5.0) n (%) | TEAE: Vascular disorders (Grade 2, Overall QD (N = 20)): 2 (10.0) n (%) | TEAE: Vomiting (Grade 2, Overall QD (N = 20)): 2 (10.0) n (%) | Any treatment-emergent adverse event (TEAE) [2]: 19 (54.3) n (%) | TEAE: Abdominal distension [2]: 2 (5.7) n (%) | TEAE: Abdominal pain [2]: 1 (2.9) n (%) | TEAE: Back pain [2]: 3 (8.6) n (%) | TEAE: Blood and lymphatic system disorders [2]: 1 (2.9) n (%) | TEAE: Constipation [2]: 4 (11.4) n (%) | TEAE: Cough [2]: 1 (2.9) n (%) | TEAE: Decreased appetite [2]: 5 (14.3) n (%) | TEAE: Diarrhoea [2]: 5 (14.3) n (%) | TEAE: Dysgeusia [2]: 3 (8.6) n (%) | TEAE: Dyspnoea [2]: 9 (25.7) n (%) | TEAE: Fatigue [2]: 11 (31.4) n (%) | TEAE: Gastrointestinal disorders [2]: 11 (31.4) n (%) | TEAE: General disorders and administration site conditions [2]: 14 (40.0) n (%) | TEAE: Haematuria [2]: 1 (2.9) n (%) | TEAE: Infections and infestations [2]: 8 (22.9) n (%) | TEAE: Investigations [2]: 1 (2.9) n (%) | TEAE: Metabolism and nutrition disorders [2]: 7 (20.0) n (%) | TEAE: Musculoskeletal and connective tissue disorders [2]: 5 (14.3) n (%) | TEAE: Nausea [2]: 8 (22.9) n (%) | TEAE: Nervous system disorders [2]: 4 (11.4) n (%) | TEAE: Oedema peripheral [2]: 1 (2.9) n (%) | TEAE: Psychiatric disorders [2]: 2 (5.7) n (%) | TEAE: Pyrexia [2]: 1 (2.9) n (%) | TEAE: Renal and urinary disorders [2]: 2 (5.7) n (%) | TEAE: Respiratory, thoracic, and mediastinal disorders [2]: 12 (34.3) n (%) | TEAE: Skin and subcutaneous tissue disorders [2]: 3 (8.6) n (%) | TEAE: Urinary tract infection [2]: 4 (11.4) n (%) | TEAE: Vascular disorders [2]: 3 (8.6) n (%) | TEAE: Vomiting [2]: 3 (8.6) n (%) | Any treatment-emergent adverse event (TEAE) (Grade 3, Overall BID (N = 15)): 6 (40.0) n (%) | TEAE: Blood and lymphatic system disorders (Grade 3, Overall BID (N = 15)): 1 (6.7) n (%) | TEAE: Diarrhoea (Grade 3, Overall BID (N = 15)): 1 (6.7) n (%) | TEAE: Dyspnoea (Grade 3, Overall BID (N = 15)): 0 n (%) | TEAE: Fatigue (Grade 3, Overall BID (N = 15)): 1 (6.7) n (%) | TEAE: Gastrointestinal disorders (Grade 3, Overall BID (N = 15)): 1 (6.7) n (%) | TEAE: General disorders and administration site conditions (Grade 3, Overall BID (N = 15)): 1 (6.7) n (%) | TEAE: Infections and infestations (Grade 3, Overall BID (N = 15)): 1 (6.7) n (%)
